target: T1, human M4 muscarinic acetylcholine receptor (Homo sapiens, UniProt P08173); test: human FLIPR-based M4 PAM assay (Ca2+ mobilization, CHO-K1 cells with human M4 receptor and Gαqi5); format: cell-based; details: acetylcholine at 20% of maximum response, read-out: M4 PAM IP
T1 construct: expressed in transfected cells; host or cells: CHO-K1
T1 sequence (P08173 1-479): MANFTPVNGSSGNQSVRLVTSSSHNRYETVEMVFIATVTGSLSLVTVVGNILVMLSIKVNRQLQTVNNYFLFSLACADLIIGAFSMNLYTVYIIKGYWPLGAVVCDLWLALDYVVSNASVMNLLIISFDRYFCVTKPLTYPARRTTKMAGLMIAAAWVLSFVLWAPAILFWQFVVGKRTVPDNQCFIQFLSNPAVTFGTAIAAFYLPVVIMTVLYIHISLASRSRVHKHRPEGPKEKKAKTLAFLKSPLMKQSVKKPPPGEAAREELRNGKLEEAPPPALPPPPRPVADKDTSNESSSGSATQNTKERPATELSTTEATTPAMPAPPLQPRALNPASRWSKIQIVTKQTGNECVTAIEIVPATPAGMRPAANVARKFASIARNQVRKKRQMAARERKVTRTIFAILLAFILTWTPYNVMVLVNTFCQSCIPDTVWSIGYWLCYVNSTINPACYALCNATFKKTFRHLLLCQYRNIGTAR
Method: In a typical experiment the M4 muscarinic acetylcholine receptor modulating activity of the compounds of the present invention was determined in accordance with the following experimental method. CHO-K1 cells stably transfected with human M4 receptor and chimeric G-protein Gαqi5 (Coward P, et al., Analytical Biochemistry, 270:242-248 (1999)) are thawed from liquid N2 storage, resuspended in growth medium, plated in black, clear bottom 384 well plates, and incubated 16-20 hours at 37° C., 5% CO2. On the day of assay, growth medium is removed, the cells are washed 2 times with wash buffer, and cells are incubated in dye loading buffer at 37° C., 5% CO2 for ˜1 hour. […] Next, 10 uL of acetylcholine is added (final concentration calculated so as to achieve 20% of the maximum acetycholine response), and the fluorescence reading is continued for 3.5 min. In some cases, a third addition of acetylcholine (final concentration calculated to achieve 70% of the maximal acetylcholine response) is performed. The resulting dose response curves are fit to a 4 parameter logistic equation and the final result is determined as the inflection point (IP) of the curve
CHO-K1 cells stably transfected with human M4 receptor and chimeric G-protein Gαqi5 are thawed from liquid N2 storage, resuspended in growth medium, plated in black, clear bottom 384 well plates, and incubated 16-20 hours at 37° C., 5% CO2.
On the day of assay, growth medium is removed, the cells are washed 2 times with wash buffer, and cells are incubated in dye loading buffer at 37° C., 5% CO2 for ˜1 h. […] Next, 10 uL of acetylcholine is added (final concentration calculated so as to achieve 20% of the maximum acetycholine response), and the fluorescence reading is continued for 3.5 min. In some cases, a third addition of acetylcholine (final concentration calculated to achieve 70% of the maximal acetylcholine response) is performed.

Compound	EC50 [nM]
Cc1cc2c(nc1N1CC[C@H](Oc3cccc(C#N)c3)[C@H](F)C1)CNC2=O [Example 19, 3-(((3R,4S)-3-fluoro-1-(3-methyl-5-oxo-6,7-dihydro-5H-pyrrolo[3,4-b]pyridin-2-yl)piperidin-4-yl)oxy)benzonitrile]	57
Cc1cc2c(nc1N1CC[C@H](Oc3cccc(C#N)c3)[C@@H](F)C1)CNC2=O [Example 20, 3-(((3S,4S)-3-fluoro-1-(3-methyl-5-oxo-6,7-dihydro-5H-pyrrolo[3,4-b]pyridin-2-yl)piperidin-4-yl)oxy)benzonitrile]	83
Cc1cc2c(nc1N1CC[C@@H](Oc3cccc(C#N)c3)[C@H](F)C1)CNC2=O [Example 21, 3-(((3R,4R)-3-fluoro-1-(3-methyl-5-oxo-6,7-dihydro-5H-pyrrolo[3,4-b]pyridin-2-yl)piperidin-4-yl)oxy)benzonitrile]	50
Cc1cc2c(nc1N1CCC(Oc3ccc4c(c3)CCCN4)CC1)CNC2=O [Example 22, 3-methyl-2-(4-((1,2,3,4-tetrahydroquinolin-6-yl)oxy)piperidin-1-yl)-6,7-dihydro-5H-pyrrolo[3,4-b]pyridin-5-one]	32
Cc1cc2c(nc1N1CC[C@H](Oc3ccc4c(cnn4C)c3)[C@H](F)C1)CNC2=O [Example 23, 2-((3R,4S)-3-fluoro-4-((1-methyl-1H-indazol-5-yl)oxy)piperidin-1-yl)-3-methyl-6,7-dihydro-5H-pyrrolo[3,4-b]pyridin-5-one]	70
Cc1cc2c(nc1N1CC[C@H](Oc3ccc4c(cnn4C)c3)[C@@H](F)C1)CNC2=O [Example 24, 2-((3S,4S)-3-fluoro-4-((1-methyl-1H-indazol-5-yl)oxy)piperidin-1-yl)-3-methyl-6,7-dihydro-5H-pyrrolo[3,4-b]pyridin-5-one]	167
Cc1cc2c(nc1N1CC[C@@H](Oc3ccc4c(cnn4C)c3)[C@H](F)C1)CNC2=O [Example 25, 2-((3R,4R)-3-fluoro-4-((1-methyl-1H-indazol-5-yl)oxy)piperidin-1-yl)-3-methyl-6,7-dihydro-5H-pyrrolo[3,4-b]pyridin-5-one]	75
Cc1cc2c(nc1N1CCC(Oc3ccc4[nH]ccc4c3)CC1)CNC2=O [Example 26, 2-(4-((1H-indol-5-yl)oxy)piperidin-1-yl)-3-methyl-6,7-dihydro-5H-pyrrolo[3,4-b]pyridin-5-one]	28
Cc1cc2c(nc1N1CCC(Oc3ccc4c(ccn4C)c3)CC1)CNC2=O [Example 27, 3-methyl-2-(4-((1-methyl-1H-indol-5-yl)oxy)piperidin-1-yl)-6,7-dihydro-5H-pyrrolo[3,4-b]pyridin-5-one]	43
Cc1cc2c(nc1N1CCC(Oc3cccc(C#N)c3)CC1)[C@@H](C)N(C)C2=O [Example 28A, (R)-3-((1-(3,6,7-trimethyl-5-oxo-6,7-dihydro-5H-pyrrolo[3,4-b]pyridin-2-yl)piperidin-4-yl)oxy)benzonitrile]	84
Cc1cc2c(nc1N1CCC(Oc3cccc(C#N)c3)CC1)[C@H](C)N(C)C2=O [Example 28B, (S)-3-((1-(3,6,7-trimethyl-5-oxo-6,7-dihydro-5H-pyrrolo[3,4-b]pyridin-2-yl)piperidin-4-yl)oxy)benzonitrile]	1980
COc1ccc(O[C@@H]2CCN(c3nc4c(cc3C)C(=O)NC4)C[C@@H]2C)cn1 [Example 29A, 2-((3S,4R)-4-((6-methoxypyridin-3-yl)oxy)-3-methylpiperidin-1-yl)-3-methyl-6,7-dihydro-5H-pyrrolo[3,4-b]pyridin-5-one]	63
COc1ccc(O[C@H]2CCN(c3nc4c(cc3C)C(=O)NC4)C[C@H]2C)cn1 [Example 29B, 2-((3R,4S)-4-((6-methoxypyridin-3-yl)oxy)-3-methylpiperidin-1-yl)-3-methyl-6,7-dihydro-5H-pyrrolo[3,4-b]pyridin-5-one]	30000
COc1ccc(O[C@@H]2CCN(c3nc4c(cc3C)C(=O)NC4)C[C@H]2F)cn1 [Example 30, 2-((3R,4R)-3-fluoro-4-((6-methoxypyridin-3-yl)oxy)piperidin-1-yl)-3-methyl-6,7-dihydro-5H-pyrrolo[3,4-b]pyridin-5-one]	25
Cc1cc2c(nc1N1CC[C@@H](Oc3ccc4c(cnn4C)c3)[C@@H](F)C1)CN(C)C2=O [Example 31, 2-((3S,4R)-3-fluoro-4-((1-methyl-1H-indazol-5-yl)oxy)piperidin-1-yl)-3,6-dimethyl-6,7-dihydro-5H-pyrrolo[3,4-b]pyridin-5-one]	42
Cc1cc2c(nc1N1CCC(Oc3ccc4c(cnn4C)c3)CC1)CN(C)C2=O [Example 32, 3,6-dimethyl-2-(4-((l-methyl-1H-indazol-5-yl)oxy)piperidin-1-yl)-6,7-dihydro-5H-pyrrolo[3,4-b]pyridin-5-one]	37
COc1ccc(O[C@@H]2CCN(c3nc4c(cc3C)C(=O)N(C)C4)C[C@@H]2F)cn1 [Example 33, 2-((3S,4R)-3-fluoro-4-((6-methoxypyridin-3-yl)oxy)piperidin-1-yl)-3,6-dimethyl-6,7-dihydro-5H-pyrrolo[3,4-b]pyridin-5-one]	22
CCOc1ccc(OC2CCN(c3nc4c(cc3C)C(=O)NC4)CC2)cn1 [Example 34, 2-(4-((6-ethoxypyridin-3-yl)oxy)piperidin-1-yl)-3-methyl-6,7-dihydro-5H-pyrrolo[3,4-b]pyridin-5-one]	26
Cc1cc2c(nc1N1CC[C@@H](Oc3ccccc3)[C@@H](F)C1)CNC2=O [Example 35, 2-((3S,4R)-3-fluoro-4-phenoxypiperidin-1-yl)-3-methyl-6,7-dihydro-5H-pyrrolo[3,4-b]pyridin-5-one]	24
Cc1cc2c(nc1N1CCC(OCC3(C#N)CC3)CC1)CNC2=O [Example 36, 1-(((1-(3-methyl-5-oxo-6,7-dihydro-5H-pyrrolo[3,4-b]pyridin-2-yl)piperidin-4-yl)oxy)methyl)cyclo-propane-1-carbonitrile]	302
Cc1cc2c(nc1N1CCC(Oc3ccc(OC4CCC4)nc3)CC1)CNC2=O [Example 37, 2-(4-((6-cyclobutoxypyridin-3-yl)oxy)piperidin-1-yl)-3-methyl-6,7-dihydro-5H-pyrrolo[3,4-b]pyridin-5-one]	172
Cc1cc2c(nc1N1CCC(Oc3ccc4c(c3)COC4)CC1)CN(C)C2=O [Example 38, 2-(4-((1,3-dihydro-2-benzofuran-5-yl)oxy)piperidin-1-yl)-3,6-dimethyl-6,7-dihydro-5H-pyrrolo[3,4-b]pyridin-5-one]	30
Cc1cc2c(nc1N1CC[C@@H](Oc3cccc4c3COC4)[C@@H](F)C1)CNC2=O [Example 39, 2-((3S,4R)-4-((1,3-dihydro-2-benzofuran-4-yl)oxy)-3-fluoropiperidin-1-yl)-3-methyl-6,7-dihydro-5H-pyrrolo[3,4-b]pyridin-5-one]	1600
Cc1cc2c(nc1N1CC[C@@H](Oc3ccc4c(c3)COC4)[C@@H](F)C1)CNC2=O [Example 40, 2-((3S,4R)-4-((1,3-dihydro-2-benzofuran-5-yl)oxy)-3-fluoropiperidin-1-yl)-3-methyl-6,7-dihydro-5H-pyrrolo[3,4-b]pyridin-5-one]	17
Cc1cc2c(nc1N1CCC(OC3CCOC3)CC1)CNC2=O (stereo not shown) [Example 41, 3-methyl-2-(4-((tetrahydrofuran-3-yl)oxy)piperidin-1-yl)-6,7-dihydro-5H-pyrrolo[3,4-b]pyridin-5-one]	11300
Cc1cc2c(nc1N1CCC(OC3CCOCC3)CC1)CNC2=O [Example 42, 3-methyl-2-(4-((tetrahydro-2H-pyran-4-yl)oxy)piperidin-1-yl)-6,7-dihydro-5H-pyrrolo[3,4-b]pyridin-5-one]	1730
Cc1cc2c(nc1N1CC[C@@H](Oc3cccc(C#N)c3)[C@H](O)C1)CNC2=O [Example 43A, 3-(((3R,4R)-3-hydroxy-1-(3-methyl-5-oxo-6,7-dihydro-5H-pyrrolo[3,4-b]pyridin-2-yl)piperidin-4-yl)oxy)benzonitrile]	155
Cc1cc2c(nc1N1CC[C@H](Oc3cccc(C#N)c3)[C@@H](O)C1)CNC2=O [Example 43B, 3-(((3S,4S)-3-hydroxy-1-(3-methyl-5-oxo-6,7-dihydro-5H-pyrrolo[3,4-b]pyridin-2-yl)piperidin-4-yl)oxy)benzonitrile]	367

Reference: patent publication US10329289B2, “6,7-dihydro-5H-pyrrolo[3,4-B]pyridin-5-one allosteric modulators of the M4 muscarinic acetylcholine receptor” (Merck Sharp & Dohme Corp., priority 2015, dated 2019)
